# “Also recorded” adds a separate entry of the source.
# Assays:
# [1] = tested on: CRF-induced CREB phosphorylation in striatal neurons; test: Block of CRF-induced CREB phosphorylation; assay type: cell-based, rat; conditions: 30 min prior and concurrently, CRF 15 min
# [2] = tested on: ISO-induced CREB phosphorylation in striatal neurons; set-up: dose or concentration left out as unconfirmed; conditions: ref unpublished observations; cited from earlier work
# Source text: (§1) Supplement pone.0018114.s002.xlsx, sheet "Sheet1" | column: Target (notes)
# [3] = tested on: forskolin (FSK)-induced CREB phosphorylation; test: Block of forskolin-induced CREB phosphorylation; assay type: cell-based, rat; conditions: H89 2 µM; forskolin 25 µM
# Method: (§2) Protocols followed are those described previously, using a well-characterized commercially available monoclonal antibody directed against the Ser133 phosphorylated version of CREB (see below), [66], [70]–[72]. Briefly, cultured striatal neurons (8–10 d.i.v.) were incubated in a Tyrode's solution containing TTX (1 µM) and AP-5 (25 µM) at room temperature for 1.5 hr. Unless noted otherwise, cell stimulations were performed as follows: vehicle (15 min); agonist stimulations were 15 min, antagonist exposure was 30 min prior to agonist stimulation, except PTX and CTX (18 hr pre-treatment), and concurrently with agonist stimulation. […] Data were quantified with Leica LAS AF (version 1.9.0; Leica).
# (§3) The confocal excitation and detection settings for each experiment were determined using coverslips stimulated for 5 min with 60 mM potassium (60 K) to establish a “ceiling” for pCREB intensity. A baseline was determined via the vehicle (NS) group, so that each assay has an internal control. […] Neurons were readily discriminated from glia via size and morphology (see Figure 1 and Figure S1) and selected randomly using α-tubulin or MAP2 fluorescence, allowing the experimenter to remain blind to the CREB or pCREB signal. […] To analyze pCREB fluorescence intensity, the α-tubulin or MAP2 staining was used to draw a region of interested (ROI) of interest outlining the nucleus of each neuron. […]
# [4] = tested on: MAPKAP; conditions: cited from earlier work
# Source text: as §1
# [5] = tested on: PKA; conditions: cited from earlier work
# Source text: as §1
# [6] = tested on: PKB; conditions: cited from earlier work
# Source text: as §1
# [7] = tested on: ROCK-II; conditions: cited from earlier work
# Source text: as §1
# [8] = tested on: BDNF-induced NFAT activation; conditions: 100 nM; cited from earlier work
# Source text: as §1
# [9] = tested on: Ras; conditions: cited from earlier work
# Source text: as §1
# [10] = tested on: ISO-induced CREB phosphorylation in striatal neurons; test: Block of isoproterenol-induced CREB phosphorylation; assay type: cell-based, rat; conditions: gallein 75 µM; ISO 10 µM
# Method: as §2, §3
# [11] = tested on: Rac1; set-up: dose or concentration left out as unconfirmed; conditions: cited from earlier work
# Source text: as §1
# [12] = tested on: PI3K; conditions: cited from earlier work
# Source text: as §1
smiles,measurement,setting,value
O=C1Nc2ccc(I)cc2/C1=C/c1cc(Br)c(O)c(Br)c1 [GW5074],effect on CRF-induced CREB phosphorylation,"[1]; inhibitor 1 µM, data not shown",failed to affect CRF-induced CREB phosphorylation
same,effect on ISO-induced pCREB in striatal neurons,[2],c-Raf (1 mM blocks ISO-induced pCREB in striatal neurons)
O=S(=O)(NCCNC/C=C/c1ccc(Br)cc1)c1cccc2cnccc12 [H89],effect on CRF-induced CREB phosphorylation,[1]; inhibitor 2 µM,failed to block CRF-induced CREB phosphorylation
same,effect on forskolin-induced CREB phosphorylation,[3],attenuated forskolin (FSK)-induced CREB phosphorylation
same,IC50,[4],> 270 nM
same,IC50,[5],135 nM
same,IC50,[7],> 270 nM
COC(=O)[C@@]1(O)C[C@H]2O[C@]1(C)n1c3ccccc3c3c4c(c5c6ccccc6n2c5c31)C(=O)NC4 [K252a],effect on CRF-induced CREB phosphorylation,[1]; inhibitor 100 nM,failed to affect CRF-induced CREB phosphorylation
same,effect on BDNF-induced NFAT activation,[8],Tyrosine Kinase (100 nM prevents BDNF-induced NFAT activation)
Cc1cc(C(=O)N2CCN(c3cccc(Cl)c3)CC2)n(-c2ccccc2)n1 [XRP44X],effect on CRF-induced CREB phosphorylation,[1]; inhibitor 2 µM,failed to affect CRF-induced CREB phosphorylation
same,IC50,[9],10 to 20 nM
O=C1OC2(c3ccccc31)c1ccc(O)c(O)c1Oc1c2ccc(O)c1O [gallein],effect on CRF-induced CREB phosphorylation,[1]; inhibitor 75 µM,CRF failed to induce CREB phosphorylation in the presence of this drug; also recorded: eliminated CRF-induced CREB phosphorylation
same,effect on ISO-induced CREB phosphorylation,[10],"should not affect ISO-dependent CREB phosphorylation. Indeed, this was in fact the case; also recorded: had no effect on CREB phosphorylation"
same,Rac1 activation inhibition,[11],inhibits PI3K and Rac1 activation
same,PI3K inhibition,[12],inhibits PI3K

# — PMC3063246, “Corticotropin Releasing Factor-Induced CREB Activation in Striatal Neurons Occurs via a Novel Gβγ Signaling Pathway” (PLoS ONE, 2011)
